This note sets out measurements from PubChem BioAssay (NCI).

Among the test systems are HL-60(TB) leukemia; HOP-62 NSCLC; HT29 colon; KM12 colon; MALME-3M melanoma; NCI-H460 lung; NCI-H522 lung; SNB-75 CNS; UACC-62 melanoma; UO-31 renal.
Experiment in all cases: inhibition of tumour cell growth, NCI panel, 48 h

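Tested at 5 concentrations; 48 h exposure; 96-well plates; endpoints linearly interpolated, else capped at highest concentration. GI50 is the concentration that inhibits growth by half. The concentration for full growth arrest is given as TGI.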 A value given as a limit tells only on which side of the number the result lay.

For `O=C(O)c1[nH]c(C(=O)O)c(CC(F)(F)C(F)(F)C(F)(F)F)c1CC(F)(F)C(F)(F)C(F)(F)F`, the TGI in the assay on HL-60(TB) leukemia, in the assay on HOP-62 NSCLC, with HT29 colon, in the assay on KM12 colon, in the assay with MALME-3M melanoma and in the assay on NCI-H460 lung was greater than 100 µM throughout. Further, the TGI in the assay on NCI-H522 lung, in the assay with SNB-75 CNS, in the assay with UACC-62 melanoma and in the assay with UO-31 renal was greater than 100 µM each time.
In the case of `CCC(=O)N1C/C(=C/c2ccc(OC)cc2)C(=O)/C(=C/c2ccc(OC)cc2)C1`, the GI50 with HL-60(TB) leukemia is 2.98 µM; with HOP-62 NSCLC, 2.79 µM; in the assay with HT29 colon it was 1.18 µM; with KM12 colon, 1.38 µM; in the assay on MALME-3M melanoma, 2.47 µM; with NCI-H460 lung, 2.05 µM. Moreover, the GI50 in the assay with NCI-H522 lung is 1.85 µM; in the assay with SNB-75 CNS it was 5.91 µM; with UACC-62 melanoma it was 1.6 µM; in the assay on UO-31 renal, 1.34 µM. For the same compound, the TGI in the assay on HL-60(TB) leukemia is 53.1 µM; in the assay on HOP-62 NSCLC, 6.45 µM; in the assay with HT29 colon, 4.13 µM; in the assay on KM12 colon it was 2.85 µM; with MALME-3M melanoma, 6.26 µM; with NCI-H460 lung, 4.48 µM. For the same compound, the TGI in the assay on NCI-H522 lung was 3.86 µM; in the assay on SNB-75 CNS, greater than 100 µM; with UACC-62 melanoma, 3.01 µM; in the assay on UO-31 renal it was 2.71 µM.
Regarding `Cc1ccc(S(=O)(=O)NCCN2c3nc4ccccc4cc3Sc3cc4ccccc4nc32)cc1`, the GI50 with HL-60(TB) leukemia is greater than 100 µM; in the assay with HOP-62 NSCLC, 16.5 µM; with HT29 colon it was greater than 100 µM; in the assay with KM12 colon it was greater than 100 µM; in the assay with MALME-3M melanoma, 23.2 µM; in the assay with NCI-H460 lung, greater than 100 µM. Moreover, the GI50 in the assay on NCI-H522 lung is 44.4 µM; in the assay on SNB-75 CNS, 1.54 µM; with UACC-62 melanoma, 11.4 µM; in the assay on UO-31 renal, greater than 100 µM. The TGI in the assay with HL-60(TB) leukemia is greater than 100 µM; in the assay with HOP-62 NSCLC, 98.9 µM; in the assay on HT29 colon, greater than 100 µM; with KM12 colon, greater than 100 µM; in the assay with MALME-3M melanoma it was greater than 100 µM; with NCI-H460 lung it was greater than 100 µM. The TGI was greater than 100 µM in the assay with NCI-H522 lung, 7.84 µM in the assay with SNB-75 CNS, 51.4 µM with UACC-62 melanoma and greater than 100 µM with UO-31 renal.
Turning to `CC(C)(C)C([O-])=C1C(=O)c2ccccc2C1=O.CC(C)(C)C([O-])=C1C(=O)c2ccccc2C1=O.CC[O-].CC[O-].[Ti+4]`, the GI50 in the assay on HL-60(TB) leukemia is 27.1 µM; with HOP-62 NSCLC it was 37.7 µM; in the assay with HT29 colon, 32.9 µM; in the assay on KM12 colon it was 37.6 µM; with MALME-3M melanoma, 17.3 µM; in the assay with NCI-H460 lung, 32.1 µM. Moreover, the GI50 in the assay on NCI-H522 lung was 21.7 µM; in the assay on SNB-75 CNS it was 42.3 µM; in the assay on UACC-62 melanoma, 11.9 µM; in the assay with UO-31 renal, 19.1 µM. The TGI in the assay with HL-60(TB) leukemia was 67 µM; with HOP-62 NSCLC it was greater than 100 µM; in the assay on HT29 colon, greater than 100 µM; with KM12 colon, greater than 100 µM; in the assay with MALME-3M melanoma, 38.5 µM; in the assay on NCI-H460 lung, greater than 100 µM. For the same compound, the TGI with NCI-H522 lung is 54.2 µM; in the assay on SNB-75 CNS, greater than 100 µM; in the assay with UACC-62 melanoma it was 28.8 µM; in the assay with UO-31 renal, 44.5 µM.
For `C=CCN(N=O)C(=O)N(CCC)CCCC(NC(C)=O)C(=O)NCc1ccccc1` (stereo not given), the TGI in the assay with HL-60(TB) leukemia, in the assay on HOP-62 NSCLC, in the assay on HT29 colon, in the assay with KM12 colon, in the assay with MALME-3M melanoma and with NCI-H460 lung was greater than 100 µM in each case. The TGI in the assay on NCI-H522 lung, with SNB-75 CNS, with UACC-62 melanoma and with UO-31 renal was greater than 100 µM in each case.
`Cc1ccc(S(=O)(=O)ON/N=C2/C3OC3[C@@H]3CCCC[C@H]23)cc1` (stereo not given in full): the TGI with HL-60(TB) leukemia, with HOP-62 NSCLC, in the assay with HT29 colon, in the assay on KM12 colon, in the assay with MALME-3M melanoma and in the assay on NCI-H460 lung was greater than 100 µM each time. Moreover, the TGI in the assay on NCI-H522 lung, with SNB-75 CNS, with UACC-62 melanoma and with UO-31 renal was greater than 100 µM in each case.
